Assay results reported in patent publication US20190202877A1, “DERMASEPTIN-TYPE AND PISCIDIN-TYPE ANTIMICROBIAL PEPTIDES” (THE REGENTS OF THE UNIVERSITY OF COLORADO, a body corporate, priority 2014, published 2019).
≈ marks a conversion by molar mass, not a printed value. Read-outs that look alike come from different tables or passages of the source.

Legend:
human red blood cells = conditions: for Fold improvement in HC50: compared to D-Piscidin 1 or D-Dermaseptin S4, 18 hours
Method: Peptide samples (concentrations determined by amino acid analysis) were added to 1% human erythrocytes in phosphate-buffered saline (100 mM NaCl, 80 mM Na2HPO4, 20 mM NaH2PO4, pH 7.4) and the reaction mixtures were incubated at 37° C. for 18 h in microtiter plates. Two-fold serial dilutions of the peptide samples were carried out. This determination was made by withdrawing aliquots from the hemolysis assays and removing unlysed erythrocytes by centrifugation (800×g). Hemoglobin release was determined spectrophotometrically at 570 nm. The control for 100% hemolysis was a sample of erythrocytes treated with water or 0.1% Triton-X 100. The control for no release of hemoglobin was a sample of 1% erythrocytes without any peptide added. […] The hemolytic activity was determined as the peptide concentration that caused 50% hemolysis of erythrocytes after 18 h (HC50). HC50 as determined from a plot of percent lysis versus peptide concentration (μM). The inventors also determined the hemolytic activity after 1 hour at 37° C.

[1] = test system: methicillin resistant Staph. aureus (MRSA); format: cell-based, Staphylococcus aureus; conditions: for MIC: MH medium, 37° C., 24 h
Method: (§1) MICs were determined by a standard microtiter dilution method in Mueller Hinton (MH) medium. Briefly, cells were grown overnight at 37° C. in MH broth and were diluted in the same medium. Serial dilutions of the peptides were added to the microtiter plates in a volume of 50 μl, followed by the addition of 50 μl of bacteria to give a final inoculum of 5×10^5 colony-forming units (CFU)/mL. The plates were incubated at 37° C. for 24 h, and the MICs were determined as the lowest peptide concentration that inhibited growth.
(§2) Various peptides of the invention were tested for antimicrobial activity as described in Example 1. The antimicrobial activity of these peptides was similarly tested against Gram-positive organisms, including Staphylococcus aureus.

[2] = test system: methicillin sensitive Staph. aureus (MSSA); format: cell-based, Staphylococcus aureus; conditions: for MIC: MH medium, 37° C., 24 h
Method: as §1, §2

## CC[C@@H](C)[C@@H](NC(=O)CNC(=O)[C@@H](CCCNC(=N)N)NC(=O)[C@@H](Cc1ccccc1)NC(=O)[C@H](NC(=O)[C@@H](Cc1c[nH]cn1)NC(=O)[C@@H](Cc1c[nH]cn1)NC(=O)[C@@H](Cc1ccccc1)NC(=O)[C@H](N)Cc1ccccc1)[C@H](C)CC)C(=O)N[C@@H](C(=O)N[C@H](Cc1c[nH]cn1)C(=O)N[C@H](CCCCN)C(=O)NCC(=O)N[C@H](CCCCN)C(=O)N[C@@H](C(=O)N[C@@H](C(=O)N[C@H](Cc1c[nH]cn1)C(=O)N[C@H](CCCNC(=N)N)C(=O)N[C@H](CC(C)C)C(=O)N[C@@H](C(=O)N[C@@H](C(=O)NCC(N)=O)[C@H](C)O)C(C)C)[C@H](C)CC)[C@H](C)O)C(C)C [D-Piscidin 1 V12K]
Human red blood cells
  Fold improvement in HC50: 19 fold
[1]; MRSA strain M21742 (nose)
  MIC: 385 µM (≈ 1000 µg/mL)
[1]; MRSA strain M21756 (nose)
  MIC: 385 µM (≈ 1000 µg/mL)
[1]; MRSA strain M22111 (ear)
  MIC: 96.1 µM (≈ 250 µg/mL)
[1]; MRSA strain M22130
  MIC: 96.1 µM (≈ 250 µg/mL)
[1]; MRSA strain M22224 (leg)
  MIC: 96.1 µM (≈ 250 µg/mL)
[1]; MRSA strain M22354
  MIC: 96.1 µM (≈ 250 µg/mL)
[1]; MRSA strain M22360 (labia)
  MIC: 3.0 µM (≈ 7.8 µg/mL)
[1]; MRSA strain M22424 (arm)
  MIC: 769 µM (≈ 2000 µg/mL)
[1]; geometric mean of MIC from 8 different isolates of MRSA
  MIC GM, MRSA: 114 µM (≈ 296 µg/mL)
[2]; MSSA strain BL7429
  MIC: 385 µM (≈ 1000 µg/mL)
[2]; MSSA strain M21913
  MIC: 769 µM (≈ 2000 µg/mL)
[2]; MSSA strain M21935
  MIC: 192 µM (≈ 499 µg/mL)
[2]; MSSA strain M21991
  MIC: 769 µM (≈ 2000 µg/mL)
[2]; MSSA strain M22075
  MIC: 385 µM (≈ 1000 µg/mL)
[2]; MSSA strain M22097
  MIC: 385 µM (≈ 1000 µg/mL)
[2]; MSSA strain M22111
  MIC: 6.0 µM (≈ 15.6 µg/mL)
[2]; MSSA strain M22274
  MIC: 769 µM (≈ 2000 µg/mL)
[2]; MSSA strain M22287
  MIC: 192 µM (≈ 499 µg/mL)
[2]; MSSA strain M22300
  MIC: 24.0 µM (≈ 62.4 µg/mL)
[2]; MSSA strain M22312
  MIC: 769 µM (≈ 2000 µg/mL)
[2]; MSSA strain M22315
  MIC: 192 µM (≈ 499 µg/mL)
[2]; geometric mean of MIC from 12 different isolates of MSSA
  MIC GM, MSSA: 229 µM (≈ 595 µg/mL)

## CC[C@@H](C)[C@@H](NC(=O)[C@H]1CCCN1C(=O)[C@@H](CCCNC(=N)N)NC(=O)[C@@H](Cc1ccccc1)NC(=O)[C@H](NC(=O)[C@@H](Cc1c[nH]cn1)NC(=O)[C@@H](Cc1c[nH]cn1)NC(=O)[C@@H](Cc1ccccc1)NC(=O)[C@H](N)Cc1ccccc1)[C@H](C)CC)C(=O)N[C@@H](C(=O)N[C@H](Cc1c[nH]cn1)C(=O)N[C@@H](C(=O)NCC(=O)N[C@H](CCCCN)C(=O)N[C@@H](C(=O)N[C@@H](C(=O)N[C@H](Cc1c[nH]cn1)C(=O)N[C@H](CCCNC(=N)N)C(=O)N[C@H](CC(C)C)C(=O)N[C@@H](C(=O)N[C@@H](C(=O)NCC(N)=O)[C@H](C)O)C(C)C)[C@H](C)CC)[C@H](C)O)C(C)C)C(C)C [D-Piscidin 1 G8P]
Human red blood cells; HC50 1 hour vs 18 hours at 37° C.
  fold increase in hemolytic activity from 1 to 18 hours: 7 fold

## CC[C@@H](C)[C@@H](NC(=O)CNC(=O)[C@@H](CCCNC(=N)N)NC(=O)[C@@H](Cc1ccccc1)NC(=O)[C@H](NC(=O)[C@@H](Cc1c[nH]cn1)NC(=O)[C@@H](Cc1c[nH]cn1)NC(=O)[C@@H](Cc1ccccc1)NC(=O)[C@H](N)Cc1ccccc1)[C@H](C)CC)C(=O)N[C@@H](C(=O)N[C@H](Cc1c[nH]cn1)C(=O)N[C@@H](C(=O)N[C@H](CCCCN)C(=O)N[C@H](CCCCN)C(=O)N[C@@H](C(=O)N[C@@H](C(=O)N[C@H](Cc1c[nH]cn1)C(=O)N[C@H](CCCNC(=N)N)C(=O)N[C@H](CC(C)C)C(=O)N[C@@H](C(=O)N[C@@H](C(=O)NCC(N)=O)[C@H](C)O)C(C)C)[C@H](C)CC)[C@H](C)O)C(C)C)C(C)C [D-Piscidin 1 G13K]
Human red blood cells
  Fold improvement in HC50: 3.9 fold
